# Measurements reported in US10918641B2, “Use of MTAP inhibitors for the treatment of lung disease” (The University of North Carolina at Chapel Hill, priority 2015, dated 2021).
# pKi: −log10 of the molar value. “Also recorded” adds a separate entry of the source.
# Experiments:
# human MTAP = target: T1, human MTAP (Homo sapiens, UniProt Q13126); assay: Inhibition of human MTAP by transition state analogue (Ki*); assay type: biochemical
# T1 sequence (Q13126 1-283): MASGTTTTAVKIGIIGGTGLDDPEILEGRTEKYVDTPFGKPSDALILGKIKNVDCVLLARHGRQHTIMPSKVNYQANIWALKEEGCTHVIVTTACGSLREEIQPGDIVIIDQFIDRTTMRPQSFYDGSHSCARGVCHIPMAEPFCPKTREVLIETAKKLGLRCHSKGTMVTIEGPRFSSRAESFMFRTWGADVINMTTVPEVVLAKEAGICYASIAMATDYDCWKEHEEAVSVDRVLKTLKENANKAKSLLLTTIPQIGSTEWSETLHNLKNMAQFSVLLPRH
# [1] = system: protein receptor and kinase panels; assay: Protein receptor and kinase panels (off-target effects); assay type: binding
# [2] = Acute and seven-day repeat-dose toxicity by gavage in CD-1 mice
# Description: In CD-1 mice, a single dose of MTDIA was administered by gavage to establish acute toxicity (300, 600 and 1000 mg/kg), or once daily for seven consecutive days (0, 600 and 1000 mg/kg/day) to determine repeat-dose toxicity. Mice were monitored for abnormalities, survival rates, histopathological changes (heart, lung, liver, kidney, spleen, small intestine and stomach were evaluated histopathologically by a board certified pathologist), clinical chemistry and complete blood count (CBC) analysis.
# [3] = Toxicity in in vitro (2D and 3D culture) and in vivo studies to date; settings: all in vitro (2D and 3D culture) and in vivo studies to date
# Scnn1b-Tg mice [4] = assay: 15 mg/kg oral gavage once daily for three days in Scnn1b-Tg mice; assay type: in vivo, mouse
# Description: Therefore, we repeated the above study in Scnn1b-Tg mice using 15 mg/kg MTDIA by oral gavage once daily for three days. With the longer treatment, we observed increases in serum (FIG. 8A) and BALF (FIG. 8B) MTA concentrations in treated mice relative to vehicle treated animals (n=13 and 11, respectively), similar to the changes seen with the single dose experiments.
# Similar differences were observed when BALF inflammatory cells were analyzed as cell differentials rather than cell counts. These findings provide compelling evidence that MTDIA can act as an anti-inflammatory drug in a chronic airways disease model.
# [5] = Stability of MTDIA in drinking water (MS method); assay type: physicochemical; settings: three days, room temperature
# MTA metabolism at MTAP [6] = assay: MTDIA in drinking water of WT mice, serum and BALF MTA; assay type: in vivo
# Description: The effect of a range of MTDIA concentrations in drinking water on serum and BALF MTA concentrations in WT mice is explored using protocols similar to those described above, except that MTDIA is delivered in drinking water rather than oral gavage. In preliminary experiments, we calculated that 75 μg/mL of MTDIA in drinking water would deliver a dose of 15 mg/kg per day that we utilized in our single dose experiments (based on estimates of a 25 g mouse drinking […] water per day), and we examined WT mice treated with this dose as well as half of this dose (37.5 μg/mL) relative to mice drinking untreated water. […] Once this dose is established, this dose is tested over three days in our Scnn1b-Tg and CF/Scnn1b-Tg mice to ensure that we observe similar effects in these models.
# MTAP = MTAP (Mus musculus, UniProt Q9CQ65)
# MTA metabolism at MTAP [7] = system: MTA metabolism at MTAP
# MTA metabolism at MTAP [8] = system: MTA metabolism at MTAP; remark: listed apart in the source
# Description: A) Serum MTA concentrations after single oral dose of various concentrations of MTDIA (range 0.6-150 mg/kg, numbers on graph represent dose in mg/kg MTDIA) as well as a 10 mg/kg dose IV.
# physchem = settings: PBS, aqueous buffer
# [9] = Metabolic stability in human hepatocytes and microsomes
# Scnn1b-Tg mice [10] = assay: Single 15 mg/kg oral gavage dose in WT and Scnn1b-Tg mice
# [11] = MTDIA plasma pharmacokinetics after oral or i.p. dose in CD-1 mice; settings: in words
# [12] = 15 mg/kg once daily, three days
# Sequence of MTAP (Q9CQ65 whole entry): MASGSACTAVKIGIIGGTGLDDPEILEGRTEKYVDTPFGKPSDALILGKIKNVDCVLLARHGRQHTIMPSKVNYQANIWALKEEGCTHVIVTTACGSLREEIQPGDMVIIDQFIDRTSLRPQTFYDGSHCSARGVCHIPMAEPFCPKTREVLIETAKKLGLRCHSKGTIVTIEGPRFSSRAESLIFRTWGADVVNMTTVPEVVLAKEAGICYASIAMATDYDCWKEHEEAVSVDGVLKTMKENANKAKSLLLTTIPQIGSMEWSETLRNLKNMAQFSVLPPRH
smiles,measurement,setting,value
"CSC[C@H]1CN(Cc2c[nH]c3c(N)ncnc23)C[C@@H]1O [MTDIA, (3R,4S)-1-[(9-deazaadenin-9-yl)methyl]-3-hydroxy-4-(methylthiomethyl)pyrrolidine]",pKi,human MTAP,10.07
same,Affinity for MTAP,human MTAP; in words,picomolar affinity
same,Off-target effects in protein receptor and kinase panels,[1],minimal off-target effects
same,LOAEL (Lowest-Observed-Adverse-Effect level),"[2]; CD-1 mice, gavage",600 mg/kg/day
same,Histopathological findings,"[2]; mouse, in vivo",No histopathological findings were detected
same,Toxicity observed,[3],No significant toxicity
same,BALF MTA concentrations vs. vehicle,Scnn1b-Tg mice [4]; [12],increases
same,Free concentrations of spermine and spermidine in serum or BALF,Scnn1b-Tg mice [4]; [12],did not observe large changes; also recorded: minimal changes
same,Serum MTA concentrations vs. vehicle,Scnn1b-Tg mice [4]; [12],increases; also recorded: increased serum MTA concentrations
same,"Bronchus-associated lymphoid tissue (BALT), lung histology",Scnn1b-Tg mice [4]; three days of MTDIA treatment,meaningfully reduced; also recorded: greatly reduced
same,Enlarged activated macrophage phenotype (BALF cytospins),Scnn1b-Tg mice [4]; three days of MTDIA treatment,appears to be reduced; also recorded: resolve to a more WT appearance
same,BALF macrophage cell counts,Scnn1b-Tg mice [4]; three days oral MTDIA,corresponding increase
same,BALF eosinophil cell count,"Scnn1b-Tg mice [4]; three days oral MTDIA, vehicle 14.2+13.5, p<0.001",2.2+3.2 ×10^3 cells/ml
same,BALF neutrophil cell count,"Scnn1b-Tg mice [4]; three days oral MTDIA, vehicle 32.0+16.9, p<0.001",11.5+8.2 ×10^3 cells/ml
same,Stability in drinking water,[5],stable
same,Serum MTA concentrations vs. control,MTA metabolism at MTAP [6]; 37.5 μg/mL in drinking water,more than two orders of magnitude higher than control; also recorded: orders of magnitude increases
same,Serum MTA concentrations vs. control,MTA metabolism at MTAP [6]; 75 μg/mL in drinking water,more than two orders of magnitude higher than control; also recorded: orders of magnitude increases
same,BALF MTA vs. control,MTA metabolism at MTAP [6]; 37.5 or 75 μg/mL in drinking water,less dramatic increases; also recorded: increased BALF MTA concentrations
same,Duration of inhibition of MTAP activity in vivo,MTAP; an oral or i.p. dose,> 24 h
same,Time for MTAP catalytic activity in mouse serum to return to normal,MTAP; single oral dose 15 mg/kg,≤ 36 h
same,Time for which catalytic activity of MTAP in mouse serum is completely inhibited,MTAP; single oral dose 15 mg/kg,24 h
same,Urinary MTA,"MTA metabolism at MTAP [7]; 15 mg/kg, mice",approximately 30 μM
same,Increase of plasma MTA levels,"MTA metabolism at MTAP [7]; 15 mg/kg, mice, after 30 min",> 100 fold
same,Decrease in polyamine concentrations,MTA metabolism at MTAP [7]; an oral or i.p. dose,~2 fold
same,MTA accumulation in plasma over baseline levels,MTA metabolism at MTAP [7]; an oral or i.p. dose,> 100 fold
same,Oral dose yielding maximal response in serum MTA concentrations,"MTA metabolism at MTAP [8]; previous experiments, as stated in Example 7",15 mg/kg
same,Oral dose with maximum effect on serum MTA concentrations,MTA metabolism at MTAP [8]; single oral dose range 0.6-150 mg/kg (FIG. 7A legend),30 mg/kg
same,solubility,physchem,156 mM
same,Time metabolically stable,"[9]; in vitro, human hepatocytes and microsomes",over 4 hr
same,Metabolic stability in microsomes and hepatocytes,[9]; in words,metabolically stable
same,BALF inflammatory markers,Scnn1b-Tg mice [10]; after a single dose,did not observe any changes
same,Serum MTA concentrations,"Scnn1b-Tg mice [10]; single 15 mg/kg oral gavage, 24 hours, WT and Scnn1b-Tg mice, 15 mg/kg",increase; also recorded: increases serum MTA
same,Oral availability,[11],orally available
